Test results from PubChem BioAssay (NCI).
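Protocol summary: plate cells (96-well), add compound at 5 concentrations, incubate 48 h, interpolate endpoints linearly. Here, GI50 denotes the concentration required for 50% inhibition of growth. The concentration for full growth arrest is given as TGI.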

Key:
Test in all cases: NCI anticancer screen, dose series, 48 h
[1] = system: SR leukemia
[2] = system: DU-145 prostate
[3] = system: UACC-257 melanoma
[4] = system: UACC-62 melanoma
[5] = system: HT29 colon
[6] = system: SNB-75 CNS
[7] = system: 786-0 renal
[8] = system: SK-MEL-2 melanoma
[9] = system: KM12 colon
[10] = system: HL-60(TB) leukemia

Structure (SMILES): Cc1c(C(=O)/C=C/c2ccc(Cl)cc2)nnn1-c1ccnc2c(C(F)(F)F)cccc12
- GI50 [1]: 8.71 µM
- TGI [1]: 55.2 µM
- GI50 [2]: > 100 µM
- TGI [2]: > 100 µM
- GI50 [3]: 30.2 µM
- TGI [3]: > 100 µM
- GI50 [4]: 26.5 µM
- TGI [4]: > 100 µM
- GI50 [5]: 8.24 µM
- TGI [5]: > 100 µM
- GI50 [6]: 15.9 µM
- TGI [6]: 36.5 µM
- GI50 [7]: 45.6 µM
- TGI [7]: > 100 µM
- GI50 [8]: > 100 µM
- TGI [8]: > 100 µM
- GI50 [9]: 77.1 µM
- TGI [9]: > 100 µM
- GI50 [10]: 25.9 µM
- TGI [10]: > 100 µM

Structure (SMILES): CN(C)c1ccc(/C=N/n2c(CCCCc3n[nH]c(=S)n3/N=C/c3ccc(N(C)C)cc3)n[nH]c2=S)cc1
- GI50 [1]: > 100 µM
- TGI [1]: > 100 µM
- GI50 [2]: > 100 µM
- TGI [2]: > 100 µM
- GI50 [3]: > 100 µM
- TGI [3]: > 100 µM
- GI50 [4]: > 100 µM
- TGI [4]: > 100 µM
- GI50 [5]: > 100 µM
- TGI [5]: > 100 µM
- GI50 [6]: 30.2 µM
- TGI [6]: > 100 µM
- GI50 [7]: 89.3 µM
- TGI [7]: > 100 µM
- GI50 [8]: > 100 µM
- TGI [8]: > 100 µM
- GI50 [9]: > 100 µM
- TGI [9]: > 100 µM
- GI50 [10]: > 100 µM
- TGI [10]: > 100 µM

Structure (SMILES): COC1/C=C/OC2(C)Oc3c(C)c(O)c4c(O)c(c(/C=N/N(c5ccccc5)c5ccccc5)c(O)c4c3C2=O)NC(=O)C(C)=C/C=C/C(C)C(O)C(C)C(O)C(C)C(OC(C)=O)C1C (stereo not given)
- GI50 [1]: 1.4 µM
- TGI [1]: 3.39 µM
- GI50 [2]: 2.37 µM
- TGI [2]: 7.96 µM
- GI50 [3]: 1.48 µM
- TGI [3]: 5.44 µM
- GI50 [4]: 0.992 µM
- TGI [4]: 2.58 µM
- GI50 [5]: 1.1 µM
- TGI [5]: 2.63 µM
- GI50 [6]: 1.66 µM
- TGI [6]: 7.18 µM
- GI50 [7]: 1.63 µM
- TGI [7]: 5.96 µM
- GI50 [8]: 1.84 µM
- TGI [8]: 7.14 µM
- GI50 [9]: 1.65 µM
- TGI [9]: 6.45 µM
- GI50 [10]: 1.6 µM
- TGI [10]: 3.58 µM

Structure (SMILES): CN(C)c1ccc2cc3c(cc2c1)Oc1ccccc1N3.[Cl][Zn][Cl]
- GI50 [1]: 3.15 µM
- TGI [1]: > 100 µM
- GI50 [2]: 8.24 µM
- TGI [2]: 20.9 µM
- GI50 [3]: 3.16 µM
- TGI [3]: 9.36 µM
- GI50 [4]: 3.43 µM
- TGI [4]: 13.4 µM
- GI50 [5]: 4.09 µM
- TGI [5]: > 100 µM
- GI50 [6]: 11.4 µM
- TGI [6]: 24.2 µM
- GI50 [7]: 2.85 µM
- TGI [7]: 9.48 µM
- GI50 [8]: 9.65 µM
- TGI [8]: 31.3 µM
- GI50 [9]: 13.2 µM
- TGI [9]: 29.1 µM
- GI50 [10]: 2.61 µM
- TGI [10]: 7.3 µM
